Some results are limits rather than exact numbers.

One may read the EC50 as the concentration needed to bring the measured effect to its halfway point. Higher therefore signals a less potent agent.

This assay relates to HCV Huh-luc/neo-ET replicon cells. As to the kind of experiment: Luciferase-Based HCV Replicon Assay (EC50 (1b)). It is filed as cell-based. The conditions noted are these: Hepatitis C virus, 72 hours exposure, luciferase activity. As to the method:
Luciferase-Based HCV Replicon Assay Protocol (EC50 (1b))
The cell culture component of the assay was performed essentially as described by Bartenschlager et al., Hepatology 2002, 35, 694-703, wherein exponentially growing HCV Huh-luc/neo-ET replicon cells were seeded at 6×10^3 cells/well in 96 well assay plate. 24 hours later the cells were treated with various concentrations of compound in triplicate. After 72 hours exposure to the compound, the luciferase activity in the wells was determined using Bright-Glo reagent (Promega, Madison, Wis.) with a luminometer (Wallac 1420 Multilabel HTS Counter Victor 2). The background control was replicon cells treated with 100 nM BILN-2061, an inhibitor of the HCV protease. % Inhibition was determined for each compound concentration in relation to the negative (no compound) control to calculate the EC50 (1b).
Background: A replicon is a self-replicating genome or part of one, used to study replication in cells.
`CC1CN(Cc2ccc(F)cc2)C(=O)C(C2=NS(=O)(=O)c3c(CNS(C)(=O)=O)csc3N2)=C1O` (racemic) [Example 10, rac-N-{3-[1-(4-Fluoro-benzyl)-4-hydroxy-5-methyl-2-oxo-1,2,5,6-tetrahydro-pyridin-3-yl]-1,1-dioxo-1,4-dihydro-1λ^6-thieno[2,3-e][1,2,4]thiadiazin-7-ylmethyl}-methanesulfonamide] came in with an EC50 of 0.1 to 1 µM.
The figure for `CS(=O)(=O)NCc1csc2c1S(=O)(=O)N=C(C1=C(O)[C@@H]3CCC[C@@H]3N(CC3CCCCC3)C1=O)N2` [Example 103, (4aR,7aS)-N-[3-(1-Cyclohexylmethyl-4-hydroxy-2-oxo-2,4a,5,6,7,7a-hexahydro-1H-[1]pyrindin-3-yl)-1,1-dioxo-1,4-dihydro-1λ^6-thieno[2,3-e][1,2,4]thiadiazin-7-ylmethyl]-methanesulfonamide] is 0.02 to 0.1 µM; for `CC(C)CCN1C(=O)C(C2=NS(=O)(=O)c3c(CNS(C)(=O)=O)csc3N2)=C(O)[C@@H]2[C@@H]3CC[C@@H](C3)[C@@H]21` [Example 69, N-{3-[(1S,2S,7R,8R)-6-Hydroxy-3-(3-methyl-butyl)-4-oxo-3-aza-tricyclo[6.2.1.0^2,7]undec-5-en-5-yl]-1,1-dioxo-1,4-dihydro-1λ^6-thieno[2,3-e][1,2,4]thiadiazin-7-ylmethyl}-methanesulfonamide] it is 0.02 to 0.1 µM.
As for `CS(=O)(=O)NCc1csc2c1S(=O)(=O)N=C(C1=C(O)[C@@H]3[C@@H]4CC[C@@H](C4)[C@@H]3N(Cc3ccsc3)C1=O)N2` [Example 58, N-[3-((1S,2S,7R,8R)-6-Hydroxy-4-oxo-3-thiophen-3-ylmethyl-3-aza-tricyclo[6.2.1.0^2,7]undec-5-en-5-yl)-1,1-dioxo-1,4-dihydro-1λ^6-thieno[2,3-e][1,2,4]thiadiazin-7-ylmethyl]-methanesulfonamide], the figure is 0.005 to 0.02 µM; as for `CC(C)CCN1C(=O)C(C2=NS(=O)(=O)c3c(CNS(C)(=O)=O)csc3N2)=C(O)[C@@H]2C3CCC(CC3)[C@@H]21` [Example 71, N-{3-[(2S,7R)-6-Hydroxy-3-(3-methyl-butyl)-4-oxo-3-aza-tricyclo[6.2.2.0^2,7]dodec-5-en-5-yl]-1,1-dioxo-1,4-dihydro-1λ^6-thieno[2,3-e][1,2,4]thiadiazin-7-ylmethyl]-methanesulfonamide], 0.005 to 0.02 µM.
As for `CS(=O)(=O)NCc1csc2c1S(=O)(=O)N=C(C1=C(O)[C@@H]3[C@H]4CC[C@H](C4)[C@@H]3N(Cc3ccc(F)cc3Cl)C1=O)N2` [Example 94, N-{3-[(1R,2S,7R,8S)-3-(2-Chloro-4-fluoro-benzyl)-6-hydroxy-4-oxo-3-aza-tricyclo[6.2.1.0^2,7]undec-5-en-5-yl]-1,1-dioxo-1,4-dihydro-1λ^6-thieno[2,3-e][1,2,4]thiadiazin-7-ylmethyl}-methanesulfonamide], the figure is 0.02 to 0.1 µM; as for `CS(=O)(=O)NCc1csc2c1S(=O)(=O)N=C(C1=C(O)C3CCCCC3NC1=O)N2` (racemic) [Example 86, (rac-cis)-N-[3-(4-Hydroxy-2-oxo-1,2,4a,5,6,7,8,8a-octahydro-quinolin-3-yl)-1,1-dioxo-1,4-dihydro-1λ^6-thieno[2,3-e][1,2,4]thiadiazin-7-ylmethyl]-methanesulfonamide], above 1 µM.
The molecule `CS(=O)(=O)NCc1csc2c1S(=O)(=O)N=C(C1=C(O)C(Cc3ccccc3)CN(Cc3ccc(F)cc3)C1=O)N2` (racemic) [Example 12, rac-N-{3-[5-Benzyl-1-(4-fluoro-benzyl)-4-hydroxy-2-oxo-1,2,5,6-tetrahydro-pyridin-3-yl]-1,1-dioxo-1,4-dihydro-1λ^6-thieno[2,3-e][1,2,4]thiadiazin-7-ylmethyl}-methanesulfonamide] yielded an EC50 above 1 µM.
The figure for `CS(=O)(=O)NCc1csc2c1S(=O)(=O)N=C(C1=C(O)C3C4C=CC(C4)C3N(Cc3ccsc3)C1=O)N2` (racemic) [Example 64, (rac-di-exo)-N-[3-(6-Hydroxy-4-oxo-3-thiophen-3-ylmethyl-3-aza-tricyclo[6.2.1.0^2,7]undeca-5,9-dien-5-yl)-1,1-dioxo-1,4-dihydro-1λ^6-thieno[2,3-e][1,2,4]thiadiazin-7-ylmethyl]-methanesulfonamide] is at most 0.005 µM.
The figure for `CS(=O)(=O)NCc1csc2c1S(=O)(=O)N=C(C1=C(O)C3CCCCC3N(Cc3ccc(F)c(Cl)c3)C1=O)N2` (racemic) [Example 119, (rac-cis)-N-{3-[1-(3-Chloro-4-fluoro-benzyl)-4-hydroxy-2-oxo-1,2,4a,5,6,7,8,8a-octahydro-quinolin-3-yl]-1,1-dioxo-1,4-dihydro-1λ^6-thieno[2,3-e][1,2,4]thiadiazin-7-ylmethyl}-methanesulfonamide] is 0.1 to 1 µM; for `CS(=O)(=O)NCc1csc2c1S(=O)(=O)N=C(C1=C(O)C3C4CCC(O4)C3N(Cc3ccc(F)cc3)C1=O)N2` (racemic) [Example 90, (rac-di-exo)-N-{3-[3-(4-Fluoro-benzyl)-6-hydroxy-4-oxo-11-oxa-3-aza-tricyclo[6.2.1.0^2,7]undec-5-en-5-yl]-1,1-dioxo-1,4-dihydro-1λ^6-thieno[2,3-e][1,2,4]thiadiazin-7-ylmethyl}-methanesulfonamide] it is 0.005 to 0.02 µM; for `CS(=O)(=O)NCc1csc2c1S(=O)(=O)N=C(C1=C(O)[C@@H]3C4CCC(CC4)[C@@H]3N(Cc3ccc(F)cc3F)C1=O)N2` [Example 51, N-{3-[(2S,7R)-3-(2,4-Difluoro-benzyl)-6-hydroxy-4-oxo-3-aza-tricyclo[6.2.2.0^2,7]dodec-5-en-5-yl]-1,1-dioxo-1,4-dihydro-1λ^6-thieno[2,3-e][1,2,4]thiadiazin-7-ylmethyl}-methanesulfonamide] it is 0.02 to 0.1 µM.
The figure for `CC(C)CCN1C(=O)C(C2=NS(=O)(=O)c3c(CNS(C)(=O)=O)csc3N2)=C(O)[C@@H]2CCC[C@@H]21` [Example 128, (4aR,7aS)-N-{3-[4-Hydroxy-1-(3-methyl-butyl)-2-oxo-2,4a,5,6,7,7a-hexahydro-1H-[1]pyrindin-3-yl]-1,1-dioxo-1,4-dihydro-1λ^6-thieno[2,3-e][1,2,4]thiadiazin-7-ylmethyl}-methanesulfonamide] is 0.02 to 0.1 µM.
Regarding `COc1cc(CN2C(=O)C(C3=NS(=O)(=O)c4c(CNS(C)(=O)=O)csc4N3)=C(O)[C@@H]3[C@@H]4CC[C@@H](C4)[C@@H]32)ccc1F` [Example 43, N-{3-[(1S,2S,7R,8R)-3-(4-Fluoro-3-methoxy-benzyl)-6-hydroxy-4-oxo-3-aza-tricyclo[6.2.1.0^2,7]undec-5-en-5-yl]-1,1-dioxo-1,4-dihydro-1λ^6-thieno[2,3-e][1,2,4]thiadiazin-7-ylmethyl}-methanesulfonamide], the EC50 lay in the range of 0.02 to 0.1 µM.
As for `CS(=O)(=O)NCc1csc2c1S(=O)(=O)N=C(C1=C(O)[C@@H]3[C@H]4CC[C@H](C4)[C@@H]3N(Cc3ccc(F)c(Cl)c3)C1=O)N2` [Example 37, N-{3-[(1R,2S,7R,8S)-3-(3-Chloro-4-fluoro-benzyl)-6-hydroxy-4-oxo-3-aza-tricyclo[6.2.1.0^2,7]undec-5-en-5-yl]-1,1-dioxo-1,4-dihydro-1λ^6-thieno[2,3-e][1,2,4]thiadiazin-7-ylmethyl}-methanesulfonamide], the figure is 0.005 to 0.02 µM.
The figure for `CS(=O)(=O)NCc1csc2c1S(=O)(=O)N=C(C1=C(O)C3C4C=CC(C4)C3N(Cc3ccccc3)C1=O)N2` (racemic) [Example 46, (rac-di-exo)-N-[3-(3-Benzyl-6-hydroxy-4-oxo-3-aza-tricyclo[6.2.1.0^2,7]undeca-5,9-dien-5-yl)-1,1-dioxo-1,4-dihydro-1λ^6-thieno[2,3-e][1,2,4]thiadiazin-7-ylmethyl]-methanesulfonamide] is at most 0.005 µM.
As for `CCCC1CC(O)=C(C2=NS(=O)(=O)c3c(CNS(C)(=O)=O)csc3N2)C(=O)N1Cc1ccc(F)cc1` (racemic) [Example 5, rac-N-{3-[1-(4-Fluoro-benzyl)-4-hydroxy-2-oxo-6-propyl-1,2,5,6-tetrahydro-pyridin-3-yl]-1,1-dioxo-1,4-dihydro-1λ^6-thieno[2,3-e][1,2,4]thiadiazin-7-ylmethyl}-methanesulfonamide], the figure is 0.1 to 1 µM; as for `CS(=O)(=O)NCc1csc2c1S(=O)(=O)N=C(C1=C(O)[C@@H]3[C@H]4CC[C@H](C4)[C@@H]3N(Cc3ccsc3)C1=O)N2` [Example 55, N-[(1R,2S,7R,8S)-3-(6-Hydroxy-4-oxo-3-thiophen-3-ylmethyl-3-aza-tricyclo[6.2.1.0^2,7]undec-5-en-5-yl)-1,1-dioxo-1,4-dihydro-1λ^6-thieno[2,3-e][1,2,4]thiadiazin-7-ylmethyl]-methanesulfonamide], at most 0.005 µM.
For `CC(C)CCN1C(=O)C(C2=NS(=O)(=O)c3c(CNS(C)(=O)=O)csc3N2)=C(O)C2CCCCCC21` (racemic) [Example 138, (rac-cis)-N-{3-[4-Hydroxy-1-(3-methyl-butyl)-2-oxo-2,4a,5,6,7,8,9,9a-octahydro-1H-cyclohepta[b]pyridin-3-yl]-1,1-dioxo-1,4-dihydro-1λ^6-thieno[2,3-e][1,2,4]thiadiazin-7-ylmethyl}-methanesulfonamide], the EC50 was 0.02 to 0.1 µM.
In turn, `CS(=O)(=O)NCc1csc2c1S(=O)(=O)N=C(C1=C(O)[C@@H]3CCC[C@@H]3NC1=O)N2` [Example 85, (4aR,7aS)-N-[3-(4-Hydroxy-2-oxo-2,4a,5,6,7,7a-hexahydro-1H-[1]pyrindin-3-yl)-1,1-dioxo-1,4-dihydro-1λ^6-thieno[2,3-e][1,2,4]thiadiazin-7-ylmethyl]-methanesulfonamide] returned an EC50 above 1 µM.
